Laboratory results as given in patent EP4817613A1, “COMPOSITION FOR ERADICATING HELICOBACTER PYLORI COMPRISING ZASTAPRAZAN OR PHARMACEUTICALLY ACCEPTABLE SALT THEREOF” (Jeil Pharmaceutical Co., Ltd., priority 2023, dated 2025).

Tests used:
[1] = test system: patients with erosive gastroesophageal reflux disease; assay: Phase 3 clinical trial: healing rate of mucosal breaks in H. pylori-positive subjects; assay type: in vivo, human
Method: H. pylori testing was performed by 13C-UBT, gastroscopy (Campylobacter-like organism test, CLO), or tissue biopsy to confirm H. pylori positivity/negativity. The testing was performed at the screening visit (Visit 1) or the randomization visit (Visit 2), and results from the same institution within 29 days prior to the randomization visit (Visit 2) could be substituted. Those who voluntarily agreed to participate in this clinical trial underwent a screening test through a screening visit, and only eligible subjects were allowed to participate in the clinical trial based on the inclusion/exclusion criteria. Eligible subjects were randomly assigned to the test group or control group and received the clinical trial drug according to the assigned group at the baseline visit (V2). […] [Table 10] The cumulative healing rate of mucosal breaks according to the presence or absence of H. pylori infection refers to the proportion of subjects whose mucosal breaks were healed by 4 weeks after the administration of the clinical trial drug on endoscopic examination. The frequency and percentage of healing rates of mucosal breaks at week 4 after the administration of the clinical trial drug were presented by administration group according to the presence or absence of H. pylori infection. The differences between the administration groups (test group-control group) were analyzed using the Cochran-Mantel-Haenszel method corrected with the baseline LA classification method as a stratification factor, and the 95% confidence intervals for the differences were presented.

[2] = test system: patients with erosive gastroesophageal reflux disease; assay: Phase 2 clinical trial, randomized, double-blind, active-controlled: healing of mucosal breaks and symptoms; assay type: in vivo, human; settings: for overall healing rate, number of subjects whose mucosal breaks were completely healed / overall healing rate, proportion of subjects whose mucosal breaks were completely healed: H. pylori-positive and -negative groups together
Method: H. pylori testing was performed by 13C-urea breath test (13C-UBT), gastroscopy (Campylobacter-like organism test, CLO), or tissue biopsy to confirm H. pylori positivity/negativity. The testing was performed at the screening visit (Visit 1) or the randomization visit (Visit 2), and results from the same institution within 29 days prior to the randomization visit (Visit 2) could be substituted. This clinical trial was a randomized, double-blind, active-controlled, multicenter, phase 2 clinical trial targeting patients with erosive gastroesophageal reflux disease. After the subjects gave written consent to participate in the clinical trial, a screening test was conducted. When the subjects were taking drugs that could affect the gastric mucosa at the time of screening, an upper gastrointestinal endoscopy was performed after a 2-week drug-free period (a 4-week drug-free period for potassium-competitive acid blockers (P-CABs) or proton pump inhibitors (PPIs)). […] At this time, the subjects were stratified by grade (A, B, C, D) according to the LA classification system classified by upper gastrointestinal endoscopy. Randomly assigned subjects took the clinical trial drug once a day according to the assigned administration group for four weeks. After four weeks of administration of the clinical trial drug, the subjects visited the clinical trial institution to undergo an upper gastrointestinal endoscopy to assess whether they were healed. Healed subjects underwent a Safety Follow-Up (F/U) two weeks later, and unhealed subjects were administered the clinical trial drug for additional four weeks (a total of 8 weeks of administration) and visited the clinical trial institution to undergo an upper gastrointestinal endoscopy. […] Days of achieving complete remission (CR, disappearance of heartburn and acid reflux for seven days) after the administration of the clinical trial drug • D. Proportion of symptom-free days (heartburn, acid reflux, heartburn/acid reflux) for 4 and 8 weeks after the administration of the clinical trial drug (daytime, nighttime, daytime/nighttime) • ③ Changes in frequency and severity of major symptoms at week 4 and week 8 of the clinical trial drug administration compared to the gastroesophageal reflux disease questionnaire (RDQ) baseline • ④ Changes in total score at week 4 and week 8 of the clinical trial drug administration compared to the GERD Health-Related Quality of Life (GERD-HRQL) baseline The proportion of subjects whose erosions recovered to normal mucosa from the first administration of the clinical trial drug up to week 8 and the two-sided 95% confidence intervals were presented by administration group. […] Days of achieving CR (disappearance of heartburn and acid reflux for seven days) after the administration of the clinical trial drug: When the symptom score is 0 for seven consecutive days after the first administration of the clinical trial drug, it was defined as CR (disappearance of heartburn and acid reflux for seven days), and the event was based on the first CR. When there was no CR, the case was considered as censoring.

[3] = test system: Helicobacter pylori SS1 (mouse colonizing strain); assay: Antibiotic susceptibility testing by microdilution (MIC and MBC), CLSI guideline; assay type: cell-based; settings: lowest concentration with no growth after spotting on antibiotic-free agar, Table 4 prints no unit (method concentrations in µg/mL)
Method: Helicobacter pylori SS1 (mouse colonizing strain): A strain known as Sydney strain. The strain is CagA-positive and VacA-positive and has been confirmed to infect and colonize in C57BL/6 mice. The strain is used in animal testing. The medium was prepared using Müller-Hinton broth (MH, Difco Inc., Sparks, MD, USA) [w/7% differentiation medium (Sigma CO., LTD., St. Louis, USA), 0.4% isovitalex (BBL Inc., Sparks, MD, USA)]. An antibiotic susceptibility testing was performed using the microdilution method according to the CLSI guideline. Two-fold serial dilution was performed in 12 steps in a 48-well plate with the highest concentration of 128 µg/mL for amocixillin and clarithromycin and 256 µg/mL for omeprazole. The bacteria were inoculated into wells containing only medium without antibiotics to prepare the positive control group, and the wells containing only medium without antibiotics or inoculated bacteria were used as the negative control group. The concentration range of the test substances, zastaprazan (JP-1366) and fexuprazan, was determined through preliminary experiments. […] The lowest concentration at which no bacterial growth was observed was determined as the MIC. […] The lowest concentration at which no bacteria growth occurred was determined as the MBC. […] All tests were performed in duplicate, and the results were determined by conducting the experiments in triplicate.

Compound: COc1ccc2nc([S@@+]([O-])Cc3ncc(C)c(OC)c3C)[nH]c2c1 [Esomeprazole, Esomeprazole magnesium trihydrate, reference compound]
- Number of healed subjects, (%) ([1]; full analysis set (FAS), week 4, 40 mg once a day, 25 subjects): 80.00%
- Healing rate, (%) ([2]; H. pylori-negative group, week 8, 40 mg once a day, N=41): 97.56%
- overall healing rate, number of subjects whose mucosal breaks were completely healed ([2]; week 4, 40 mg once a day, of 49 people): 44 people

Compound: Cc1cccc(C)c1CNc1cc(C(=O)N2CCC2)cn2c(C)c(C)nc12.O=C(O)CC(O)(CC(=O)O)C(=O)O [JP-1366, azetidin-1-yl{8-[(2,6-dimethylbenzyl)amino]-2,3-dimethylimidazo[1,2-a]pyridin-6-yl}methanone citrate salt]
- Number of healed subjects, (%) ([1]; full analysis set (FAS), week 4, 20 mg once a day, 28 subjects): 96.43%
- Number of healed subjects, (%) ([1]; per protocol set (PPS), week 4, 20 mg once a day, 26 subjects): 100.00%
- MBC [3]: 16~323
- Healing rate, (%) ([2]; H. pylori-negative group, week 4, 10 mg once a day, N=41): 95.12%
- Healing rate, (%) ([2]; H. pylori-negative group, week 4, 20 mg once a day, N=42): 90.48%
- Healing rate, (%) ([2]; H. pylori-negative group, week 8, 10 mg once a day, N=41): 97.56%
- Healing rate, (%) ([2]; H. pylori-negative group, week 8, 20 mg once a day, N=42): 97.62%
- overall healing rate, proportion of subjects whose mucosal breaks were completely healed ([2]; week 4, 10 mg once a day, 48 people): 93.75%
- overall healing rate, number of subjects whose mucosal breaks were completely healed ([2]; week 4, 10 mg once a day, of 48 people): 45 people
- overall healing rate, proportion of subjects whose mucosal breaks were completely healed ([2]; week 4, 20 mg once a day, 47 people): 91.49%
- overall healing rate, number of subjects whose mucosal breaks were completely healed ([2]; week 4, 20 mg once a day, of 47 people): 43 people
- Healing rate, (%) ([2]; H. pylori-positive group, week 4, 10 mg once a day, N=7): 85.71%
- Healing rate, (%) ([2]; H. pylori-positive group, week 4, 20 mg once a day, N=5, citrate salt): 100%
- Healing rate, (%) ([2]; H. pylori-positive group, week 8, 10 mg once a day, N=7): 100.00%
- Healing rate, (%) ([2]; H. pylori-positive group, week 8, 20 mg once a day, N=5, citrate salt): 100%
